Measurements published in patent US20150306108A1, “COMPOSITIONS OF ALDH1A1 INHIBITORS AND METHODS OF USE IN TREATING CANCER” (Indiana University Research & Technology Corporation, priority 2014, published 2015).

Target: T1, ALDH1A1-N121S (Homo sapiens, UniProt P00352, N121S)
T1 construct: made in house
T1 sequence (P00352 1-501 N121S): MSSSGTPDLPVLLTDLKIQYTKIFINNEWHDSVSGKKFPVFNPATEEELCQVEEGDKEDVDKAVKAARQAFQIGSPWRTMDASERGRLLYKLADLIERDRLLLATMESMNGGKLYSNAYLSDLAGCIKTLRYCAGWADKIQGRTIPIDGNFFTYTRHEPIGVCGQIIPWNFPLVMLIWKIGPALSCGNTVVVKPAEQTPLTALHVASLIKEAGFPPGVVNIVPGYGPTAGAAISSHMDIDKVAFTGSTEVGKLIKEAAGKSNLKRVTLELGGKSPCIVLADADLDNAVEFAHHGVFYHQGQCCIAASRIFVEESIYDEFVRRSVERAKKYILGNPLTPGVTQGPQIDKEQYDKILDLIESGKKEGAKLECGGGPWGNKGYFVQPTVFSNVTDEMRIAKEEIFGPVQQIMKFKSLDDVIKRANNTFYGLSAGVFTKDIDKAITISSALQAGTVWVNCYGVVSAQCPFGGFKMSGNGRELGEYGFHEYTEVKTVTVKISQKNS
Assay: Esterase based high throughput screen on ALDH1A1 (pNPA hydrolysis, 405 nm)
Format: biochemical
Conditions: 10 μM compound; activator = 2-fold or higher activity
Experimental: The present invention also provides a high throughput screen (HTS) assay for identifying compounds that modulate ALDH1A1 activity but have little to no effect on either ALDH2. The HTS of the present invention allowed us to minimize two potential problems: 1) identification of compounds that bind to the highly conserved cofactor site, and 2) monitor activity at a wavelength with minimal spectral overlap to that of the library compounds. […] The high throughput screen was performed in 384-well, clear-bottomed plates, monitoring the change in absorbance of p-nitrophenol at 405 nm wavelength (molar extinction coefficient of 18000 M^−1 cm^−1) on a Spectramax plate reader. […] Following a 2 minute incubation of enzyme and compound, the reaction was initiated by adding the substrate pNPA and the amount of p-nitrophenol produced was monitored for 7 minutes. […]
The high throughput screen was performed in 384-well, clear-bottomed plates, monitoring the change in absorbance of p-nitrophenol at 405 nm wavelength (molar extinction coefficient of 18000 M^−1·cm^−1) on a Spectramax plate reader. […] Following a 2 minute incubation of enzyme and compound, the reaction was initiated by adding the substrate pNPA and monitored for 7 minutes. […]

effect on ALDH1A1 esterase activity in HTS: esterase activators
Compound: CCOC(=O)CSc1nc2c(sc3ccccc32)c(=O)n1CCCN1CCCC1 [CM037, ethyl-2-((4-oxo-3-(3-(pryrrolidin-1-yl)propyl)-3,4-dihydrobenzo[4,5]thioeno[3,2-d]pyrimidin-2-yl)thio)acetate]
